Measurements reported in ChEMBL document CHEMBL3351616, “Synthesis and evaluation of novel benzophenone-thiazole derivatives as potent VEGF-A inhibitors” (Eur J Med Chem, 2014).
pIC50: −log10 of the molar value. Active and inactive are the calls of the source. The calls are words filed in the database; no cut-off is given here.

Tests used:
[1] = Cytotoxicity against mouse EAC cells after 48 hrs by trypan blue dye exclusion method; type: functional, cell-based; conditions: Ehrlich
[2] = Cytotoxicity against mouse EAC cells after 48 hrs by MTT method; type: functional, cell-based; conditions: Ehrlich
[3] = Cytotoxicity against mouse EAC cells after 48 hrs by LDH release assay; type: functional, cell-based; conditions: Ehrlich
[4] = Cytotoxicity against mouse DLA cells after 48 hrs by trypan blue dye exclusion method; type: functional, cell-based
[5] = Cytotoxicity against mouse DLA cells after 48 hrs by MTT method; type: functional, cell-based
[6] = Cytotoxicity against mouse DLA cells after 48 hrs by LDH release assay; type: functional, cell-based
[7] = Antitumor activity against mouse EAC cells allografted in mouse assessed as increase in lifespan at 50 mg/kg, ip as 3 doses on day 4,6 and 8 after tumor onset measured on day 10 (reference value: 10 days); type: functional, Ehrlich; conditions: route intraperitoneal
Ehrlich [8] = assay: Antitumor activity against mouse EAC cells allografted in mouse assessed as decrease in reduction in tumor volume at 50 mg/kg, ip as 3 doses on day 4,6 and 8 after tumor onset measured on day 10; type: functional, organism-based; set-up: dose 50 mg/kg
Ehrlich [9] = assay: Antitumor activity against mouse EAC cells allografted in mouse assessed as decrease in reduction in cell count at 50 mg/kg, ip as 3 doses on day 4,6 and 8 after tumor onset measured on day 10; type: functional, organism-based; set-up: dose 50 mg/kg
Ehrlich [10] = assay: Antitumor activity against mouse EAC cells allografted in mouse assessed as decrease in ascites fluid secretion at 50 mg/kg, ip as 3 doses on day 4,6 and 8 after tumor onset measured on day 10; type: functional, organism-based; set-up: dose 50 mg/kg
Ehrlich [11] = assay: Antitumor activity against mouse EAC cells allografted in mouse assessed as zone of avascularization in peritoneum at 50 mg/kg, ip as 3 doses on day 4,6 and 8 after tumor onset measured on day 10; type: functional, organism-based; set-up: dose 50 mg/kg
Mus musculus [12] = assay: Toxicity in Swiss albino mouse assessed as change in alkaline phosphatase level at 50 mg/kg, ip consecutively for 10 days (reference value: 124.98 +/- 1.2 IU/L); type: organism-based; set-up: dose 50 mg/kg, route intraperitoneal; conditions: in vivo, 240 h
Mus musculus [13] = assay: Toxicity in Swiss albino mouse assessed as change in creatinine level at 50 mg/kg, ip consecutively for 10 days (reference value: 0.46 +/- 1.8 mg/dl); type: organism-based; set-up: dose 50 mg/kg, route intraperitoneal; conditions: in vivo, 240 h
Mus musculus [14] = assay: Toxicity in Swiss albino mouse assessed as change in urea level at 50 mg/kg, ip consecutively for 10 days (reference value: 51 +/- 2.6 mg/dl); type: organism-based; set-up: dose 50 mg/kg, route intraperitoneal; conditions: in vivo, 240 h
Mus musculus [15] = assay: Toxicity in Swiss albino mouse assessed as change in RBC at 50 mg/kg, ip consecutively for 10 days (reference value: 4.75 +/- 2.1 x 10^6 /uL); type: organism-based; set-up: dose 50 mg/kg, route intraperitoneal; conditions: in vivo, 240 h
Mus musculus [16] = assay: Toxicity in Swiss albino mouse assessed as change in WBC at 50 mg/kg, ip consecutively for 10 days (reference value: […]); type: organism-based; set-up: dose 50 mg/kg, route intraperitoneal; conditions: in vivo, 240 h
Ehrlich [17] = assay: Antitumor activity against mouse EAC cells allografted in mouse assessed as reduction in VEGF-A mRNA expression in tumor cells at 50 mg/kg, ip as 3 doses on day 4,6 and 8 after tumor onset by RT-PCR analysis; type: functional, organism-based; set-up: dose 50 mg/kg
[18] = Antitumor activity against mouse EAC cells allografted in mouse assessed as reduction in VEGF-A protein secretion in tumor cells at 50 mg/kg, ip as 3 doses on day 4,6 and 8 after tumor onset by ELISA relative to control; type: functional, Ehrlich; conditions: route intraperitoneal
Ehrlich [19] = assay: Antitumor activity against mouse EAC cells allografted in mouse assessed as reduction in VEGF-A protein expression in tumor cells at 50 mg/kg, ip as 3 doses on day 4,6 and 8 after tumor onset by immunoblot method relative to control; type: functional, organism-based; set-up: dose 50 mg/kg
Ehrlich [20] = assay: Reduction in VEGF-A protein secretion in culture media of mouse EAC cells by ELISA; type: functional, cell-based

SMILES | pIC50 [1] | pIC50 [2] | pIC50 [3] | pIC50 [4] | pIC50 [5] | pIC50 [6] | further results
COc1ccc(-c2csc(NC(=O)COc3ccc(C(=O)c4ccc(C)cc4)cc3C)n2)cc1 | 4.71 | 4.68 | 4.68 | 4.80 | 4.76 | 4.73 | –
O=c1[nH]cc(F)c(=O)[nH]1 [FLUOROURACIL] | 4.84 | – | 4.81 | 4.82 | 4.81 | 4.77 | –
COc1ccc(-c2csc(NC(=O)COc3ccc(C(=O)c4cccc(Br)c4)cc3C)n2)cc1 | 4.42 | 4.41 | 4.39 | 4.45 | 4.44 | 4.43 | –
Cc1cc(C(=O)c2ccccc2C)ccc1OCC(=O)Nc1nc(-c2ccccc2)cs1 | 4.61 | 4.59 | 4.58 | 4.65 | 4.64 | 4.63 | –
O=C(COc1ccc(C(=O)c2ccccc2)cc1Br)Nc1nc(-c2ccccc2)cs1 | 4.34 | 4.34 | 4.33 | 4.38 | 4.37 | 4.36 | –
Cc1cc(C(=O)c2ccccc2)ccc1OCC(=O)Nc1nc(-c2ccccc2)cs1 | 4.65 | 4.62 | 4.61 | 4.67 | 4.65 | 4.64 | –
Cc1cc(C(=O)c2cccc(Br)c2)ccc1OCC(=O)Nc1nc(-c2ccccc2)cs1 | 4.61 | 4.61 | 4.59 | 4.66 | 4.62 | 4.63 | –
Cc1ccc(C(=O)c2ccc(OCC(=O)Nc3nc(-c4ccccc4)cs3)c(C)c2)cc1 | 4.55 | 4.52 | 4.52 | 4.60 | 4.58 | 4.57 | –
COc1ccc(-c2csc(NC(=O)COc3ccc(C(=O)c4ccc(F)cc4)cc3C)n2)cc1 | 5.28 | 5.27 | 5.24 | 5.30 | 5.27 | 5.26 | Survival [7]: 34 days; Activity (Ehrlich [8]): Dose-dependent effect; Activity (Ehrlich [9]): Dose-dependent effect; Activity (Ehrlich [10]): Dose-dependent effect; Activity (Ehrlich [11]): Active; Activity (Mus musculus [12]): 129 IU/L; Activity (Mus musculus [13]): 0.44 mg/dL; Activity (Mus musculus [14]): 48 mg/dL; Activity (Mus musculus [15]): 5.13 ×10⁶ /uL; Activity (Mus musculus [16]): 3.89 ×10⁶ /uL; Activity (Ehrlich [17]): Active; fold change (FC) [18]: 5; Activity (Ehrlich [19]): Active; Activity (Ehrlich [20]): Dose-dependent effect
COc1ccc(-c2csc(NC(=O)COc3c(C)cc(C(=O)c4ccccc4)cc3C)n2)cc1 | 4.39 | 4.39 | 4.38 | 4.42 | 4.40 | 4.40 | –
Cc1cc(C(=O)c2ccccc2F)ccc1OCC(=O)Nc1nc(-c2ccccc2)cs1 | 4.81 | 4.78 | 4.77 | 4.86 | 4.83 | 4.81 | –
COc1ccc(-c2csc(NC(=O)COc3ccc(C(=O)c4cccc(F)c4)cc3C)n2)cc1 | 4.53 | 4.51 | 4.51 | 4.56 | 4.55 | 4.52 | –
Cc1cc(C(=O)c2ccccc2)cc(C)c1OCC(=O)Nc1nc(-c2ccccc2)cs1 | 4.66 | 4.64 | 4.63 | 4.72 | 4.71 | 4.70 | –
COc1ccc(-c2csc(NC(=O)COc3ccc(C(=O)c4ccccc4)cc3C)n2)cc1 | 4.57 | 4.55 | 4.54 | 4.62 | 4.59 | 4.58 | –
Cc1cc(C(=O)c2ccc(F)cc2)ccc1OCC(=O)Nc1nc(-c2ccccc2)cs1 | 4.45 | 4.43 | 4.41 | 4.49 | 4.48 | 4.46 | –
